# Reference: ChEMBL document CHEMBL5550189, “Discovery of GS-7682, a Novel 4'-Cyano-Modified C-Nucleoside Prodrug with Broad Activity against Pneumo- and Picornaviruses and Efficacy in RSV-Infected African Green Monkeys” (J Med Chem, 2024)
# How the values were obtained:
# [1] = tested on: Respiratory syncytial virus; assay: Antiviral activity against RSV A2 infected in human HEp-2 cells incubated for 4 days by Cell Titer Glo assay; type: functional, organism-based; conditions: A2, HEp-2, 96 h
# [2] = Cytotoxicity against human MT4 cells incubated for 5 days by Cell Titer Glo assay; type: toxicity, cell-based; conditions: time 5 day
# [3] = tested on: Respiratory syncytial virus; assay: Antiviral activity against RSV A2 infected in Normal human bronchial epithelial cells incubated for 3 days by ONE-Glo luciferase assay; type: functional, organism-based; conditions: A2, Epithelial cell, 72 h
# [4] = Cytotoxicity against human Hep-2 cells incubated for 4 to 5 days by Cell Titer Glo assay; type: toxicity, cell-based; conditions: time 4-5 day
# Homo sapiens [5] = species: Homo sapiens; assay: Inhibition of recombinant human DNA Pol-gamma assessed as single-nucleotide incorporation rate at 50 uM measured for 60 mins in presence of dATP by imaging analysis relative to control; parameters: scale not given: the % may be the effect or the level left
# [6] = target: T1, DNA-directed RNA polymerase, mitochondrial (Homo sapiens, UniProt O00411); assay: Inhibition of recombinant human POLRMT by Phosphor imaging analysis
# T1 sequence (O00411 whole entry): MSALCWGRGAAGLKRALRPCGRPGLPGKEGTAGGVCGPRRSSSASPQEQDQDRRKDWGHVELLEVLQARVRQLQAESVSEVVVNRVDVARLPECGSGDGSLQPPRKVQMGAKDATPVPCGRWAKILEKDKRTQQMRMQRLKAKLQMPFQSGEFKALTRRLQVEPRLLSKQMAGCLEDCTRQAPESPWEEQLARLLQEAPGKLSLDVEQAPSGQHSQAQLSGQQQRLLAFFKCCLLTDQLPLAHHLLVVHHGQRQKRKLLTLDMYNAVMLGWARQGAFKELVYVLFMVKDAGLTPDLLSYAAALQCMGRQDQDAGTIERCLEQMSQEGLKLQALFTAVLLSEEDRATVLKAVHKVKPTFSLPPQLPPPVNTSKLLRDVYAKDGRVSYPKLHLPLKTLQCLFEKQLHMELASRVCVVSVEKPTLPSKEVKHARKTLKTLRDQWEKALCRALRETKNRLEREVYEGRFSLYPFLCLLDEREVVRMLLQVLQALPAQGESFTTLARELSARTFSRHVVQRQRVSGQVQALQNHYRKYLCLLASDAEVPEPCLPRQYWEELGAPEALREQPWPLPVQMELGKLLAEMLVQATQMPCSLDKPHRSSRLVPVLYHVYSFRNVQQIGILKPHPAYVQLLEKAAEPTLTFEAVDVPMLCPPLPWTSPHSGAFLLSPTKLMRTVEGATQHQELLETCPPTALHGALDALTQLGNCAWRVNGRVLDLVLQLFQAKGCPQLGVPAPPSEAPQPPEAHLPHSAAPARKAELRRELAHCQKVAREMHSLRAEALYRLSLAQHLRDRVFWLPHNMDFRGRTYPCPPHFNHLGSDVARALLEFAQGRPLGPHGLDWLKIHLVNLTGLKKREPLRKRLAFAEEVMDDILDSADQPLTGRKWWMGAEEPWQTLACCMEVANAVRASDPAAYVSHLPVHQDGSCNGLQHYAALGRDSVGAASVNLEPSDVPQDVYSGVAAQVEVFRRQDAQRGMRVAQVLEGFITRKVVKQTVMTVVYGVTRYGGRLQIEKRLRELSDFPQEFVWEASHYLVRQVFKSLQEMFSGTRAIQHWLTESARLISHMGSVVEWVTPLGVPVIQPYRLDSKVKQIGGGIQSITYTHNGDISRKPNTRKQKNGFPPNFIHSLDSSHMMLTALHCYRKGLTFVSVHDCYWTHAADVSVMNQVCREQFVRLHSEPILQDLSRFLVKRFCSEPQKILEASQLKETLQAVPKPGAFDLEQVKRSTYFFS
# [7] = Inhibition of RSV ribonucleoprotein complex in presence of [alpha-32P]ATP by Phosphor imaging analysis; parameters: species or system Respiratory syncytial virus
# Homo sapiens [8] = species: Homo sapiens; assay: Inhibition of recombinant human DNA Pol-alpha assessed as single-nucleotide incorporation rate at 50 uM measured for 60 mins in presence of dATP by imaging analysis relative to control; parameters: scale not given: the % may be the effect or the level left
# [9] = target: T1, DNA-directed RNA polymerase, mitochondrial; assay: Inhibition of recombinant human POLRMT assessed as single-nucleotide incorporation rate at 500 uM measured for 60 mins in presence of ATP by imaging analysis relative to control; parameters: scale not given: the % may be the effect or the level left
# [10] = Distribution coefficient, log D of compound measured after 30 mins by HPLC/UV analysis; type: physicochemical; conditions: octanol/water
# [11] = Prodrug conversion in Normal human bronchial epithelial cells assessed as ((2R,3S,4R,5S)-5-(4-aminopyrrolo[2,1-f][1,2,4]triazin-7-yl)-2-cyano-3,4-dihydroxytetrahydrofuran-2-yl)methyl tetrahydrogen triphosphate formation measured per million cells at 10 uM incubated for 2 hrs by LC-MS/MS analysis; type: ADME, cell-based; conditions: epithelial cell
# Human metapneumovirus = assay: Anti-viral activity against hMPV CAN99-81 (A1 genotype) infected in rhesus monkey LLC-MK2 cells incubated for 3 to 5 days; type: functional, organism-based
# Enterovirus A71 = assay: Anti-viral activity against EV-71 (H) infected in human RD cells by MTS assay; type: functional, organism-based; conditions: Enterovirus A
# enterovirus D68 = assay: Anti-viral activity against EV-D68 (18952) infected in human RD cells by MTS assay; type: functional, organism-based; conditions: Enterovirus D, 18952, RD
# Influenza A virus = assay: Anti-viral activity against Influenza A (H1N1) infected in MDCK cells by MTS assay; type: functional, organism-based; conditions: H
Compound,EC50 [1] [µM],CC50 at 120 h [2] [µM],EC50 [3] [µM],CC50 [4] [µM],logD at 0.5 h [10],further results
N#C[C@]1(CO)O[C@@H](c2ccc3c(N)ncnn23)[C@H](O)[C@@H]1O,6.83,> 50,6.23,> 50,–,–
[N-]=[N+]=N[C@]1(CO)O[C@@H](c2ccc3c(N)ncnn23)[C@H](O)[C@@H]1O,2.02,> 50,3.59,> 50,–,–
[N-]=[N+]=N[C@]1(COP(=O)(O)OP(=O)(O)OP(=O)(O)O)O[C@@H](c2ccc3c(N)ncnn23)[C@H](O)[C@@H]1O,–,–,–,–,–,Activity (Homo sapiens [5]): 0.62%; IC50 [6]: 1 µM; IC50 [7]: 0.12 µM; Activity (Homo sapiens [8]): 0%; Activity [9]: 132%
C=C[C@]1(CO)O[C@@H](c2ccc3c(N)ncnn23)[C@H](O)[C@@H]1O,> 50,> 50,> 50,> 50,–,–
N#C[C@]1(COP(=O)(O)OP(=O)(O)OP(=O)(O)O)O[C@@H](c2ccc3c(N)ncnn23)[C@H](O)[C@@H]1O,–,–,–,–,–,Activity (Homo sapiens [5]): 0%; IC50 [6]: > 200 µM; IC50 [7]: 0.05 µM; Activity (Homo sapiens [8]): 0%; Activity [9]: 0.8%
CCCOC(=O)[C@H](C)N[P@](=O)(OC[C@@]1(C#N)O[C@@H](c2ccc3c(N)ncnn23)[C@H](O)[C@@H]1O)Oc1ccccc1,0.055,10.3,0.168,> 50,1.2,–
C[C@]1(CO)O[C@@H](c2ccc3c(N)ncnn23)[C@H](O)[C@@H]1O,25.3,> 50,> 50,> 50,–,–
C[C@]1(COP(=O)(O)OP(=O)(O)OP(=O)(O)O)O[C@@H](c2ccc3c(N)ncnn23)[C@H](O)[C@@H]1O,–,–,–,–,–,Activity [9]: 3.2%
C[C@H](N[P@](=O)(OC[C@@]1(C#N)O[C@@H](c2ccc3c(N)ncnn23)[C@H](O)[C@@H]1O)Oc1ccccc1)C(=O)OC1CCOCC1,1.49,> 57,> 4.3,> 50,1.3,–
CCCOC(=O)[C@H](C)N[P@](=O)(OC[C@@]1(C#N)O[C@@H](c2ccc3c(N)ncnn23)[C@H](OC(=O)C(C)C)[C@@H]1OC(=O)C(C)C)Oc1ccccc1,0.036,4.92,0.046,15.7,3.3,Drug metabolism [11]: 402 pM
CCCOC(=O)[C@H](C)N[P@](=O)(OC[C@@]1(C#N)O[C@@H](c2ccc3c(N)ncnn23)[C@H](OC(=O)CC)[C@@H]1OC(=O)CC)Oc1ccccc1,0.041,7.65,0.056,27.3,2.8,Drug metabolism [11]: 165 pM
NC(=O)c1ncn([C@@H]2O[C@H](CO)[C@@H](O)[C@H]2O)n1 [RIBAVIRIN],–,–,–,–,–,EC50 (Human metapneumovirus): 34.8 µM
N#C[C@]1(CO)O[C@@H](c2ccc3c(N)ncnn23)[C@H](F)[C@@H]1O,–,> 50,2.31,> 100,–,–
CC(C)OC(=O)[C@H](C)N[P@](=O)(OC[C@@]1(C#N)O[C@@H](c2ccc3c(N)ncnn23)[C@H](O)[C@@H]1O)Oc1ccccc1,0.391,> 57,0.933,> 50,1.3,–
CC(=O)O[C@H]1[C@H](c2ccc3c(N)ncnn23)O[C@](C#N)(CO[P@@](=O)(N[C@@H](C)C(=O)OC2CCCCC2)Oc2ccccc2)[C@H]1OC(C)=O,0.206,29.8,0.023,> 49,2.9,Drug metabolism [11]: 40 pM
CCC(=O)O[C@H]1[C@H](c2ccc3c(N)ncnn23)O[C@](C#N)(CO[P@@](=O)(N[C@@H](C)C(=O)OC2CCCCC2)Oc2ccccc2)[C@H]1OC(=O)CC,0.06,17.1,0.041,33.9,3.5,–

Compound,EC50 [1] [µM],CC50 at 120 h [2] [µM],EC50 [3] [µM],CC50 [4] [µM],logD at 0.5 h [10],further results
Nc1ncnn2c([C@@H]3O[C@H](CO)[C@@H](O)[C@H]3O)ccc12,–,< 0.01,–,0.037,–,–
CCC(=O)O[C@H]1[C@H](c2ccc3c(N)ncnn23)O[C@](C#N)(CO[P@@](=O)(NC(C)C(=O)OC)Oc2ccccc2)[C@H]1OC(=O)CC (some centres undefined),0.092,3.33,0.019,30,2.2,Drug metabolism [11]: 384 pM
Nc1ncnn2c([C@@H]3O[C@@](CO)(CCl)[C@@H](O)[C@H]3O)ccc12,> 50,> 50,> 25,> 38,–,–
C[C@H](N[P@@](=O)(OC[C@@]1(C#N)O[C@@H](c2ccc3c(N)ncnn23)[C@H](O)[C@@H]1O)Oc1ccccc1)C(=O)OC1CCCCC1,3.11,> 50,0.63,> 50,–,–
Nc1ncnn2c([C@@H]3O[C@](CCl)(COP(=O)(O)OP(=O)(O)OP(=O)(O)O)[C@@H](O)[C@H]3O)ccc12,–,–,–,–,–,IC50 [7]: 1.1 µM; Activity [9]: 0.1%
C[C@H](N[P@](=O)(OC[C@@]1(C#N)O[C@@H](c2ccc3c(N)ncnn23)[C@H](O)[C@@H]1O)Oc1ccccc1)C(=O)OC1CCCCC1,0.148,> 50,0.141,> 100,2.2,Drug metabolism [11]: 13 pM
CCC(CC)OC(=O)[C@H](C)NP(=O)(OC[C@@]1(C#N)O[C@@H](c2ccc3c(N)ncnn23)[C@H](O)[C@@H]1O)Oc1ccccc1 (some centres undefined),0.029,40.1,0.054,> 93,2.1,–
CC(C)S(=O)(=O)n1c(N)nc2ccc(/C(=N/O)c3ccccc3)cc21 [ENVIROXIME],–,–,–,–,–,EC50 (Enterovirus A71): 0.02 µM; EC50 (enterovirus D68): 0.22 µM
COC(=O)[C@H](C)N[P@](=O)(OC[C@@]1(C#N)O[C@@H](c2ccc3c(N)ncnn23)[C@H](O)[C@@H]1O)Oc1ccccc1,0.122,> 38,0.295,> 50,1.1,Drug metabolism [11]: 15 pM
NC(=O)c1nc(F)cnc1O [FAVIPIRAVIR],–,–,–,–,–,EC50 (Influenza A virus): 5.87 µM
C=C[C@]1(COP(=O)(O)OP(=O)(O)OP(=O)(O)O)O[C@@H](c2ccc3c(N)ncnn23)[C@H](O)[C@@H]1O,–,–,–,–,–,Activity [9]: 0.96%
CC(C)C(=O)O[C@H]1[C@H](c2ccc3c(N)ncnn23)O[C@](C#N)(CO[P@@](=O)(N[C@@H](C)C(=O)OC2CCCCC2)Oc2ccccc2)[C@H]1OC(=O)C(C)C,0.06,8.7,0.017,18.1,4,Drug metabolism [11]: 170 pM
COC(=O)C(C)N[P@](=O)(OC[C@@]1(C#N)O[C@@H](c2ccc3c(N)ncnn23)[C@H](OC(C)=O)[C@@H]1OC(C)=O)Oc1ccccc1 (some centres undefined),0.127,10.6,0.051,> 42,2,–
N#C[C@]1(COP(=O)(O)OP(=O)(O)OP(=O)(O)O)O[C@@H](c2ccc3c(N)ncnn23)[C@H](F)[C@@H]1O,–,–,–,–,–,Activity (Homo sapiens [5]): 2.3%; IC50 [6]: 115 µM; IC50 [7]: 0.086 µM; Activity (Homo sapiens [8]): 8.7%; Activity [9]: 0.03%
CCOC(=O)[C@H](C)N[P@](=O)(OC[C@@]1(C#N)O[C@@H](c2ccc3c(N)ncnn23)[C@H](O)[C@@H]1O)Oc1ccccc1,0.095,28.7,0.932,> 100,1.1,–
